Data on one compound can be found in publication PMC7486443, “Generation of Phenothiazine with Potent Anti-TLK1 Activity for Prostate Cancer Therapy” (iScience, 2020).

SMILES strings stand for the structures.

Targets include CLK3 (Homo sapiens, UniProt P49761); FLT3(N841I) (Homo sapiens, UniProt P36888, N841I); TBK1 (Homo sapiens, UniProt Q9UHD2); CSNK1G1 (Homo sapiens, UniProt Q9HCP0); PLK4 (Homo sapiens, UniProt O00444); CDK8 (Homo sapiens, UniProt P49336); EPHA4 (Homo sapiens, UniProt P54764); NEK5 (Homo sapiens, UniProt Q6P3R8); EGFR(L858R,T790M) (Homo sapiens, UniProt P00533, L858R/T790M); PIK3CA(I800L) (Homo sapiens, UniProt P42336, I800L); HIPK4 (Homo sapiens, UniProt Q8NE63).

Holding throughout (assay): biochemical
Common to all, as to set-up: DiscoverX KINOMEscan scanMAX competition binding panel, single concentration, percent of control; remaining binding: dose or concentration left out as unconfirmed
What all share (details): KINOMEscan binding, percent of control; read-out: Table S4_SCANMAX REPORT - related to Fig. 1 / Percent Control

In a further test the target is T1, CDK4-cyclinD1 (Homo sapiens, UniProt P11802).
T1 construct: cyclinD1
T1 sequence (P11802 whole entry): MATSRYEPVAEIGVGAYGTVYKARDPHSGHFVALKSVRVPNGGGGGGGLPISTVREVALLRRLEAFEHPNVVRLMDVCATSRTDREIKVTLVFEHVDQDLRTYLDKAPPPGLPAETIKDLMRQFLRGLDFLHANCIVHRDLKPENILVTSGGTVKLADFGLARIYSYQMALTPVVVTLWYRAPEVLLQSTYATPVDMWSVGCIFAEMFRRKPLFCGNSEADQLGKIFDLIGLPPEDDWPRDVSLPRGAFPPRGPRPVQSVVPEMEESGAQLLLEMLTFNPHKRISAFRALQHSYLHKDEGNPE
T1 sequence (P24385 whole entry partner): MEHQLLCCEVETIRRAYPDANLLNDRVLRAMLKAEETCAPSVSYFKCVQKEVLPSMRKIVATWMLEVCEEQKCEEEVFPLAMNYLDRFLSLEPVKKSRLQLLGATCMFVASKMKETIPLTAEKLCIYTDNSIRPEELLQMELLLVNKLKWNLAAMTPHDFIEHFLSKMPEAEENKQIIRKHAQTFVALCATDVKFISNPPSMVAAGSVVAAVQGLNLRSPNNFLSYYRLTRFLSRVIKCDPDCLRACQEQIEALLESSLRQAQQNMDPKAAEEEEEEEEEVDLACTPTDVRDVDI

A further test addresses T2, IKK-epsilon (Homo sapiens, UniProt Q14164).
T2 construct: gene IKBKE

Test [1] has as its target T3, RSK4(Kin.Dom.2-C-terminal) (Homo sapiens, UniProt Q9UK32).
T3 construct: gene RPS6KA6; Kin.Dom.2-C-terminal

The target of another test is T4, NIK (Homo sapiens, UniProt Q99558).
T4 construct: gene MAP3K14

Another test has as its target T5, PIP5K2B (Homo sapiens, UniProt P78356).
T5 construct: gene PIP4K2B

In the next test the target is T6, DCAMKL1 (Homo sapiens, UniProt O15075).
T6 construct: gene DCLK1

The next test concerns the target T7, CDC2L5 (Homo sapiens, UniProt Q14004).
T7 construct: gene CDK13

T7 sequence (Q14004 whole entry): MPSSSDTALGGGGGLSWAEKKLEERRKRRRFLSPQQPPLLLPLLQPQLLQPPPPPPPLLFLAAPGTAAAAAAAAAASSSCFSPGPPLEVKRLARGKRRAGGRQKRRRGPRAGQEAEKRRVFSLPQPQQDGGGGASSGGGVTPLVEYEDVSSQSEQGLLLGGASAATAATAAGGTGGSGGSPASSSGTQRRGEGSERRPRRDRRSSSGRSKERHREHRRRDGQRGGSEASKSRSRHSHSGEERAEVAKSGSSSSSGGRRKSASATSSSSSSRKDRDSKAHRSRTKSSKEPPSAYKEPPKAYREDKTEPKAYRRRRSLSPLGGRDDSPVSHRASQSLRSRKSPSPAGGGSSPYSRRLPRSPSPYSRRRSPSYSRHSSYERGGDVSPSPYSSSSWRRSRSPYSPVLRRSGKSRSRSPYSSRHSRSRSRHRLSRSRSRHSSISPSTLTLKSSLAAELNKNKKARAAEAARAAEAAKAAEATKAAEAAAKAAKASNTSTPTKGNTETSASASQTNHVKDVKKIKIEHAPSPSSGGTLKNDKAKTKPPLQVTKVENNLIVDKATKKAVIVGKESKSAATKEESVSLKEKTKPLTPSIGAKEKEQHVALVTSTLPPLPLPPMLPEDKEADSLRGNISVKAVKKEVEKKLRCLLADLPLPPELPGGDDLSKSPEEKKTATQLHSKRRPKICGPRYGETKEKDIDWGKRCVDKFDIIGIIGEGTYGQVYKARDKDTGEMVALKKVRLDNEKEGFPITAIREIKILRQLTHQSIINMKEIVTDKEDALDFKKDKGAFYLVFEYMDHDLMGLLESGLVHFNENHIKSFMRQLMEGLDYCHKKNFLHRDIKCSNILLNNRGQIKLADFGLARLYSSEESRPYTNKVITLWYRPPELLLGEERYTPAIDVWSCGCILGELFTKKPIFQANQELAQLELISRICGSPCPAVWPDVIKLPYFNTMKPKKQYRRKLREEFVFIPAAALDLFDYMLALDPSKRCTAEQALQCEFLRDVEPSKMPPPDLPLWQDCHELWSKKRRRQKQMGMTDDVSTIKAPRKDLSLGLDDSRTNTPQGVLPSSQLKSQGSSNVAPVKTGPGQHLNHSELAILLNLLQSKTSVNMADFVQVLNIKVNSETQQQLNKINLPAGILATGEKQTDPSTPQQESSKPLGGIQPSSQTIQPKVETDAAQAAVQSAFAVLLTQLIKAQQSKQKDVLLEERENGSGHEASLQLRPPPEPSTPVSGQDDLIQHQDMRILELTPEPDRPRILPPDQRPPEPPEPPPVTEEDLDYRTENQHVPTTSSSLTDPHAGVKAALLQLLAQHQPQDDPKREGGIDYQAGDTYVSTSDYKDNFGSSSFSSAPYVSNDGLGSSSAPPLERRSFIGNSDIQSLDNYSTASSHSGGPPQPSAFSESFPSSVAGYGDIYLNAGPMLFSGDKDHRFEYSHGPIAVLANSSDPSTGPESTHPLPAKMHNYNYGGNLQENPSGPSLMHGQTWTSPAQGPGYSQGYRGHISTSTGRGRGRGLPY
EPHA4, sequence (P54764 whole entry): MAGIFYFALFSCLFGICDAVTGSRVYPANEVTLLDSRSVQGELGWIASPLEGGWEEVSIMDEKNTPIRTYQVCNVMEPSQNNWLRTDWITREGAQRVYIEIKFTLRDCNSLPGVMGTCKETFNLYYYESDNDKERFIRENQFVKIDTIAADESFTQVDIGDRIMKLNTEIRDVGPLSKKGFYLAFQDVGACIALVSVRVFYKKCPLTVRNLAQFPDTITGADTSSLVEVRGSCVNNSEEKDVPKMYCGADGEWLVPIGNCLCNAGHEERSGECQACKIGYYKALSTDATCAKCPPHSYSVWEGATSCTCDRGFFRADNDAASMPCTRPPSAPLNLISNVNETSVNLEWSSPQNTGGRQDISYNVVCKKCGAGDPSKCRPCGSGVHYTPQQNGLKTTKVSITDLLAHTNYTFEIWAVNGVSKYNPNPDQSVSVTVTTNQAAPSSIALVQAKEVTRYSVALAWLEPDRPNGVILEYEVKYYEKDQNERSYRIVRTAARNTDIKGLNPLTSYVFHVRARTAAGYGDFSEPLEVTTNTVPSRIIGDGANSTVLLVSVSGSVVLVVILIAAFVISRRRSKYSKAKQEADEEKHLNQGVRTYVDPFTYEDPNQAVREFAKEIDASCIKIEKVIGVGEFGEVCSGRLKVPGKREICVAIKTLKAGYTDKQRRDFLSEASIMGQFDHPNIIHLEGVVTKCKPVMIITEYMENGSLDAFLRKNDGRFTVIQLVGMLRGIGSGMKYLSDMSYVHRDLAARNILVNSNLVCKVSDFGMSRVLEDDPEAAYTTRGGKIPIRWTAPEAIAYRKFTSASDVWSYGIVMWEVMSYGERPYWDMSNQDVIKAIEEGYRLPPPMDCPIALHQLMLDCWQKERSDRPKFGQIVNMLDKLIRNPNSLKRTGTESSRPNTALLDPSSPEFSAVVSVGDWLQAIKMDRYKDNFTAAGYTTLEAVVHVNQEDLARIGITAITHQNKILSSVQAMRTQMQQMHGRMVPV
CLK3, sequence (P49761 whole entry): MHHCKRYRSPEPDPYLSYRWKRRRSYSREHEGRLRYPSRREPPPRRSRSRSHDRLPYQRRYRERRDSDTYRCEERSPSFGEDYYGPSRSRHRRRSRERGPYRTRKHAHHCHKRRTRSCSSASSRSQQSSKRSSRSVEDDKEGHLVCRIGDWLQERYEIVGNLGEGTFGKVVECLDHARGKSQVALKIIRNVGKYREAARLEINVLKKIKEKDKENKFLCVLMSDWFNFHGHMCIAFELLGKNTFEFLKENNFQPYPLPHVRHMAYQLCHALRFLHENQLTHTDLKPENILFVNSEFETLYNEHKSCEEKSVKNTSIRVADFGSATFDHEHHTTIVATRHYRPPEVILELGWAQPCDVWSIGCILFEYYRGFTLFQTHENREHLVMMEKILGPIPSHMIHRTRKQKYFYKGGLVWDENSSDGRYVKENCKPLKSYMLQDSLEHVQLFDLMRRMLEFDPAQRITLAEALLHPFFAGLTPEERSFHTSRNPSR
HIPK4, sequence (Q8NE63 whole entry): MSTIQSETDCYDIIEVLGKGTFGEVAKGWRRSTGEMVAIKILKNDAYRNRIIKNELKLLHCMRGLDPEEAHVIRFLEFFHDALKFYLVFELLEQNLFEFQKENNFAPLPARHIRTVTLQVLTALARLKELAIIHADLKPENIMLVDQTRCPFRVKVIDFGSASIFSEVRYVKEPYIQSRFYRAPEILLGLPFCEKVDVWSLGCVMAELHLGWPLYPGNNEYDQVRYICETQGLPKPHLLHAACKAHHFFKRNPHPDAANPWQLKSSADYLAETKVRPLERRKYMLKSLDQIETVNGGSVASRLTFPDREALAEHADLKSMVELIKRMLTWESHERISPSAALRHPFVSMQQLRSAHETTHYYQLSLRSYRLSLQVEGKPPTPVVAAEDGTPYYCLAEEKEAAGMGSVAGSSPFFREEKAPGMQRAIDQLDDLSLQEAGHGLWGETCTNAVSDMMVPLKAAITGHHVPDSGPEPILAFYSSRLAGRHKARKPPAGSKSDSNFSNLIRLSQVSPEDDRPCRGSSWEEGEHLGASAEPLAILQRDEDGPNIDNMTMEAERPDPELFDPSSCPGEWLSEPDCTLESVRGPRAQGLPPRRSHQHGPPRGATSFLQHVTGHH
T2 sequence (Q14164 whole entry): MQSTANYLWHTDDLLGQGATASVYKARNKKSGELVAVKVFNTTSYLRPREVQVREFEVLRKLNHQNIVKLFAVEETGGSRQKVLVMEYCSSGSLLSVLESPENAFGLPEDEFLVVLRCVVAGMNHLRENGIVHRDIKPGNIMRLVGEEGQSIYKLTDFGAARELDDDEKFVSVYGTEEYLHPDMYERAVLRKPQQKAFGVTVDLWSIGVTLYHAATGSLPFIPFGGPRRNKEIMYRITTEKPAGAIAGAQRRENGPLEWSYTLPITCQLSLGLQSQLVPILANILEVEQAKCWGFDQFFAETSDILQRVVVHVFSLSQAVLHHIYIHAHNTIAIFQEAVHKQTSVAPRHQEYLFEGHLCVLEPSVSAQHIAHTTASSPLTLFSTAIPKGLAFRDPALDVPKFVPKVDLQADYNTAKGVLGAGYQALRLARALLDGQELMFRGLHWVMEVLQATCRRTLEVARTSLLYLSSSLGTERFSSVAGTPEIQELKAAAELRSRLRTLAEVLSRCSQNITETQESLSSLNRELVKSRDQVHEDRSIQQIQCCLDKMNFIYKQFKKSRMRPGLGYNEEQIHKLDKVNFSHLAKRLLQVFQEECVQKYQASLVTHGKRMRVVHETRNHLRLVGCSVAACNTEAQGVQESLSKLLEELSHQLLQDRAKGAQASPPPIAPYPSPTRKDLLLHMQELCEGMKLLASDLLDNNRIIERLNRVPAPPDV

On to `c1ccc2c(c1)Sc1ccccc1N2CCN1CCOCC1` [J54], for which the remaining binding on CLK3 is 92%; on CDK4-cyclinD1 it was 36%; on FLT3(N841I) it was 99%; at TBK1, 89%; on CSNK1G1 it was 100%; on PLK4, 85%. For the same compound, the remaining binding came out at 75% on IKK-epsilon; 100% at CDK8; 100% on EPHA4; 99% in [1]; 70% at NEK5; 100% at NIK. The remaining binding was 100% at EGFR(L858R,T790M); 51% on PIP5K2B; 99% at PIK3CA(I800L); 100% at DCAMKL1; 90% at HIPK4; 92% on CDC2L5.
